“And” between values parts separate entries of the source, which are not always exact repeats. Identical values can stand only once.
How the values were obtained:
[1] = molecular target: T1, Aβ 1-42 (Homo sapiens, UniProt P05067); experiment: Assay 1 Fluorometric H2O2 assay (peroxide); type: biochemical; settings: inhibition of H2O2 generation by Aβ with copper
T1 construct: The reaction solutions contained Aβ 1-42 at concentrations
Procedure: Assay 1. Fluorometric H2O2 Assay
A fluorometric assay was used to test the ability of a test compound to inhibit hydrogen peroxide generation by Aβ in the presence of copper based on dichlorofluoroscein diacetate (DCF; Molecular Probes, Eugene Oreg.). The DCF solution (5 mM) in 100% dimethyl sulphoxide (previously purged with argon for 1 hr at 20° C.) was deacetylated in the presence of 0.025M NaOH for 30 min and neutralised at pH 7.4 to a final concentration of 1 mM. Horseradish peroxidase (HRP) stock solution was prepared to 1 μM at pH 7.4. The reactions were carried out in PBS, pH 7.4 in a 96 well plate (total volume=250 μl/well). The reaction solutions contained Aβ 1-42 at concentrations in the range of 50 nM to 1 μM, copper-glycine chelate (Cu-Gly), was prepared by adding CuCl2 to glycine in the ratio of 1:6 and added to the Aβ in the proportion 2Cu-Gly:1Aβ), reducing agents including dopamine (5 μM) or ascorbic acid, deacetylated DCF 100 μM, and HRP, 0.1 μM. 1-10 μM EDTA or another chelator may also be present as a control for free copper, but was not required for the assay to function. The reaction mixture was incubated at 37 C for 60 min. Catalase (4000 units/ml) and H2O2 (1-2.5 μM) standards in PBS pH 7.4 may be included as positive controls. Fluorescence was recorded using a plate reader with excitation and emission filters at […] respectively. H2O2 concentration may be established by comparing fluorescence with the H2O2 standards. Inhibition of Aβ H2O2 production was assayed by including a given concentration of test compound(s) in the test wells.

[2] = Assay 3(d) test compound cytotoxicity (MTS); type: cell-based; settings: BL6Jx129sv, mouse, primary cortical neuronal cultures, cortical neurons; for viability at 4 days, 1 µM: read-out: Assay 3(d) Cytotoxicity (% viable at 1 uM); for viability at 4 days, 10 µM: read-out: Assay 3(d) Cytotoxicity (% viable at 10 uM)
Procedure: Primary Cortical Neuronal Cultures
Cortical cultures were prepared as previously described (White et al., 1998). Embryonic day 14 BL6Jx129sv mouse cortices were removed, dissected free of meninges and dissociated in 0.025% (wt/vol) trypsin. Dissociated cells were plated in 48 well culture plates at a density of 2×10^6 cells/mL in MEM with 25% (vol/vol) FCS and 5% (vol/vol) HS and incubated at 37° C., 2 hrs. Media was then replaced with Neurobasal media (Invitrogen Life Technologies) and B27 supplements (Invitrogen Life Technologies). Cultures were maintained at 37° C. in 5% CO2. Prior to experimentation, the culture medium was replaced with Neurobasal media and B27 minus antioxidants (Invitrogen Life Technologies).
(a) MTS Assay for Cell Viability
Cell viability is determined using the MTS assay. Culture medium is replaced with fresh neurobasal medium plus B27 supplements minus antioxidants. 1/10 volume MTS solution (Cell Titre 96 Aqueous One, Promega Corporation) and incubated at 37° C., 2 hrs. 200 microlitre aliquots are measured with a spectrophotometer at 560 nm.
(d) Assay for Test Compound Cytoxicity
Neuronal cortical cells were cultured for five days as per Assay 2 in NB media and B27 supplement.
On day six the test compounds were added to the neuronal cell cultures in NB media and B27 supplement minus antioxidants.
Test compounds were dissolved in 100% DMSO to a concentration of 2.5 mM (10 mM if excess compound was weighed out per vial—then diluted to 2.5 mM). 2.5 mM stock solution was serially diluted 1 in 10 to give working solutions of 250 uM, 25 uM, 2.5 uM. Test compounds were not added directly to cells, instead they were added to a 48 well ‘Drug Plate’ as comprised below:
Preparation of “Drug Plate”:
• Well 1: 576 ul NB+B27 (no antioxidant)*+24 ul 2.5 uM test compound • Well 2: 576 ul NB+B27 (no antioxidant)+24 ul 25 uM test compound • Well 3: 576 ul NB+B27 (no antioxidant)+24 ul 250 uM test compound • Well 4: 576 ul NB+B27 (no antioxidant)+24 ul 2.5 uM test compound • Well 5: 576 ul NB+B27 (no antioxidant)+24 ul 25 uM test compound • Well 6: 576 ul NB+B27 (no antioxidant)+24 ul 250 uM test compound • Well 7: 576 ul NB+B27 (no antioxidant)+24 ul test compound diluent** • Well 8: 600 ul NB+B27 (no antioxidant)
The Drug Plate was incubated at 37° C. for 15 mins. 200 ul of each well was added in triplicate to the corresponding cell plate. The cell plate was incubated at 37° C., for 4 days, (2 compounds are tested on each plate of cells).
* NB media and B27 (no antioxidants),
** PBT diluent 10% DMSO in NB+B27 (no antioxidants)
On completion of the assay, 1/10 volume MTS was added per well of plate (ie 25 ul/250 ul). The plates were incubated at 37° C. for 2 hrs, and then absorbance was read at 560 nm.

[3] = molecular target: T2, A-beta 1-42 aggregates formed by precipitation with zinc (Homo sapiens, UniProt P05067); experiment: Assay 17 synthetic amyloid plaque disaggregation assay (thioflavin T); type: biochemical; settings: for Assay 17 percentage disaggregation at 5 uM: 5 uM (printed as 5/%); for EC50: Aβ1-42/Zn/ThT aggregates, 2 hours, 37 degrees
T2 construct: host or cells: chemically synthesised peptide
T2 sequence (P05067 672-713 limits assumed): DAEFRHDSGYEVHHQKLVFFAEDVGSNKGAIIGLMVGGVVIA
Procedure: Assay 17. Synthetic Amyloid Plaque Disaggregation Assay
This assay measures the ability of test compounds to dissolve aggregates of synthetic Alzheimer's A-beta 42 residue peptide formed by precipitation with zinc.
The synthetic plaque disaggregation assay is a thioflavin T fluorescence-based assay which measures the ability of a test compound to disaggregate synthetic aggregates generated by the incubation of Alzheimer's amyloid A-beta protein (Aβ) in the presence of zinc.
The 42 residue A-beta which is the form most prevalent in Alzheimer's amyloid plaques is precipitated by the addition of zinc salts to form a beta sheet conformational aggregate physicochemically congruent with the crystalline amyloid plaque cores. […] Solubilisation of the metal bound aggregates by a test compound will result in reduced fluorescence as the beta sheet conformation is lost. The activity of a compound in this assay is a combination of its metal chelating properties, solubility, hydrophobicity and structural elements which influence interaction with the amyloid mass.
The assay models the process by which a test compound is acting, either to compete for bound metals with Aβ or alternatively to displace metals by competitively binding at the metal binding site, resulting in Aβ precipitated by zinc, being solubilised, as an in vitro model of plaque disaggregation.
Aliquots of synthetic Aβ peptide are prepared for convenience. Aβ is dissolved in distilled H2O and peptide concentration is assessed by absorption at 214 nm against a validated standard curve. Abeta/Zn aggregates in the presence of solvent only (DMSO) and control vehicle (PBS) are included in each assay as negative controls. The test compounds were dissolved in DMSO to a concentration of 5 mM. Dilutions were made in DMSO as appropriate to 100 times the desired final concentration and added immediately to the A-beta aggregates.
A-beta 1-42 is incubated with ZnCl2 and Thioflavine T (ThT) in a molar ratio of (1:2:2) for 24 hours at 37 degrees on a rotating wheel in PBS pH 6.6. Following incubation, aggregates are incubated with test drug for a further 2 hours at 37 degrees with rotation. PBS blank, untreated aggregates and DMSO controls are included with each experiment. After 2 hour incubation, samples are measured for ThT fluorescence using an LS55 (Perkin Elmer) fluorimeter in a cuvette.
Data are generated in FL Winlab software (Perkin Elmer) and analysed using GraphPad Prism v4.0 software. Data are calculated as the average of multiple reads.
The two values together provide a measure of the efficiency of disaggregation.

[4] = test system: soluble and insoluble Aβ in the brain; experiment: Assay 11 effect on Aβ deposits in transgenic animals (soluble and insoluble Aβ, Western blot); type: in vivo, APP2576 transgenic mouse; settings: APP2576 mice
[5] = Assay 16 mouse plasma levels of test compounds; type: in vivo; settings: for Conc. in mouse plasma: listed as PB 1076, 30 mg/kg
Procedure: Assay 16. Determination of Mouse Plasma Levels of Test Compounds PB 1075
(§1) Oral administration of PB 1075 at 30 mg/kg, as a suspension in Na-Carboxymethyl Cellulose (CMC) was administered by oral gavage to four mice. Two mice were sacrificed 30 minutes after administration and two mice were sacrificed 60 minutes after administration. Blood was obtained by cardiac puncture and plasma separated by centrifugation.
The concentration of PB 1075 was determined by LC/MS using the triple quadrupole instrument. The mobile phase consisted of an acetonitrile (ACN)/water gradient (containing 0.05% Formic acid) and the column was a Phenomenex Lunea 5 um C8 (50×2 mm) column.
The supplied acute toxicity mouse plasma samples were directly injected following a protein precipitation with ACN. The analytical method in plasma was linear in the range of 10 to 10,000 ng/ml (R^2=0.994). Recovery of PB 1075 from plasma was ˜100%.
as §1, with “1076” for “1075”
The concentration of PB 1076 was determined by LC/MS using the triple quadrupole instrument. The mobile phase consisted of an acetonitrile (ACN)/water gradient (containing 0.05% Formic acid) and the column was a Phenomenex Luna 5 μM C8 (50×2 mm) column.
The mouse plasma samples were directly injected following a protein precipitation with ACN. The analytical method in plasma was linear in the range of 500 to 10,000 ng/ml (R^2=0.999). Recovery of PB 1076 from plasma was ˜85%.
as §1, with “1077” for “1075”
The concentration of PB 1077 was determined by LC/MS using the triple quadrupole instrument. The mobile phase consisted of an acetonitrile (ACN)/water gradient (containing 0.05% Formic acid) and the column was a Phenomenex Luna 5 μM C8 (50×2 mm) column.
The mouse plasma samples were directly injected following a protein precipitation with ACN. The analytical method in plasma was linear in the range of 5 to 5,000 ng/ml (R^2=0.999). Recovery of PB 1077 from plasma was ˜92%.

[6] = test system: Aβ plaques; experiment: Assay 14 transgenic mouse brain immunohistochemistry (plaque score); type: in vivo; settings: APP2576 mice
Description: Assay 14. Transgenic Mouse Brain Immunohistochemistry
The APP2576 transgenic mouse (Hsiao et al., 1996) as referred to in Assay 11 is utilized in this assay. The contralateral formalin-fixed mouse brain tissue is coronally cut. Sections (10 μm) are taken from the corresponding sites and treated with 80% formic acid for antigen retrieval. The primary antibody used is monoclonal antibody 1E8, which recognizes epitopes between residues 18 and 22 of Aβ (SmithKline Beecham, UK). Immunoreactivity is developed with secondary antibody linked to horseradish peroxidase (using a 3,39-diaminobenzidinechromagen) (Dako) and alkaline phosphatase (using 5-bromo-4-chloro 3-indoxyl phosphate and nitroblue tetrazolium chloride chromagen) (Dako). Plaque abundance per section is assessed by two operators blinded to treatment according to the following scale:
1=plaques present but very sparse
2=several plaques present
3=numerous plaques visible in restricted areas
4=plaques abundant and not restricted to any particular area.
Intermediate values eg 2.5 are assigned where applicable. Students ‘t’ test is used for comparisons between groups.

T1 sequence (P05067 672-713 limits assumed): as above

| SMILES | IC50 [1] | viability at 4 days, 1 µM [2] | viability at 4 days, 10 µM [2] | Assay 17 percentage disaggregation at 5 uM [3] | EC50 [3] | Tg mice Insoluble Fraction: % change compared with vehicle alone control mice ([4]; insoluble Aβ) | Tg mice Soluble Fraction: % change compared with vehicle alone control mice ([4]; soluble Aβ) | Conc. in mouse plasma ([5]; 30 min after oral dosing at 30 mg/kg, single mouse) | Conc. in mouse plasma ([5]; 60 min after oral dosing at 30 mg/kg, single mouse) | Assay 16 Mice plasma concentration ([5]; highest level found in mice (Up to), oral dosing 30 mg/kg described for PB 1075-1077) | concentration at 30 min ([5]; mouse, plasma, po, 30 mg/kg, 30 min after oral dosing at 30 mg/kg, single mouse, read-out: Conc. in mouse plasma) | Plaques score: average count score per treatment group relative to the vehicle (sham) treated group [6] | disaggregation (rating in words) [3] |
| --- | --- | --- | --- | --- | --- | --- | --- | --- | --- | --- | --- | --- | --- |
| Br.O=c1c2c(Cl)cc(Cl)c(O)c2ncn1Cc1cccc(Cn2cnc3c(O)c(Cl)cc(Cl)c3c2=O)n1 [Compound 1101] | < 4.1 µM | 89% | 17% | 45 5/% | 11.7 µM |  |  |  |  |  |  |  |  |
| Br.O=c1c2c(Cl)cc(Cl)c(O)c2ncn1Nc1ccc(F)cc1F [Compound 1100] | 0.42 µM | 100% | 92% | 42% | 17 µM |  |  |  |  |  |  |  |  |
| O=c1c2c(Cl)ccc(O)c2ncn1CC1CC1 [Compound 1132] |  |  |  | 16 5/% |  |  |  |  |  |  |  |  |  |
| Br.O=c1c2c(Cl)cc(Cl)c(O)c2ncn1CC1CC1 [Compound 1076] | 0.45 µM |  |  |  |  | −21% (insol) | −24% (sol) | 1593.61 ng/mL | 1167.52 ng/mL and 2697.62 ng/mL | Up to 2698 ng/mL | 2330 ng/mL | −29% (plaque) |  |
| CCN(CC)Cc1nc2c(O)c(Cl)cc(Cl)c2c(=O)[nH]1 [Compound 1128] | 0.34 µM |  |  | 41 5/% | 13.2 µM |  |  |  |  |  |  |  | very good (A test compound able to achieve an IC50 at less than 20 μM and scoring greater than 40% disaggregation at 5 μM is considered ‘very good’) |
